As usually defined, the EC50 is the midpoint of the concentration-response curve.

Where two headings read alike, the source gives them in different places.

The assay addresses T1, human TGR5 (h-TGR5) (Homo sapiens, UniProt Q8TDU6).
T1 construct: expressed in transfected cells
T1 sequence (Q8TDU6 1-330): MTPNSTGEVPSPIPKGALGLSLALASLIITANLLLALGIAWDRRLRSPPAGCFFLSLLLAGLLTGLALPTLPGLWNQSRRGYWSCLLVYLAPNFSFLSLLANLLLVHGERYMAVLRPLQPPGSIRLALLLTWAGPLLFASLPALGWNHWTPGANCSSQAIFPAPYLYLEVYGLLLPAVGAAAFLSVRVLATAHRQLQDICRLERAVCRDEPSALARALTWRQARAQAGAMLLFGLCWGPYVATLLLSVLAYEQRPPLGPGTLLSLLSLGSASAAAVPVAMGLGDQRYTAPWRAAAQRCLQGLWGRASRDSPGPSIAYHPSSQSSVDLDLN
Briefly: TGR5/CRE-Luciferiase Assay (HEK 293 hTGR5/CRE-Luc cells). In kind it is cell-based. Put shortly:
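HEK293 cells stably carrying hTGR5 and a CRE-luciferase reporter were exposed to serially diluted compounds (diluted in DMEM with 5% DMSO) for 6 h. Cells were then lysed in luciferase buffer, luminescence was read, and EC50 values were derived from dose-response curves.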

Setting [1] is: h-TGR5 CRE-Luc EC50, Table 1, read-out: CRE-Luc (EC50).

For the compound `COc1ccc(C(C)(C)c2cnc(S(=O)(=O)CCc3ccc(Cl)c(Cl)c3)n2-c2ccc(F)cc2)cc1OC` [5-{1-[3,4-bis(methyloxy)phenyl]-1-methylethyl}-2-{[2-(3,4-dichlorophenyl)ethyl]sulfonyl}-1-(4-fluorophenyl)-1H-imidazole], under setting [1], the EC50 was under 100 nM.
On to `CC(Oc1ccc(Cl)c(Cl)c1)c1ncc(C(C)(C)c2ccc(Cl)c(Cl)c2)n1-c1ccc(F)cc1` (stereo not shown) [5-[1-(3,4-dichlorophenyl)-1-methylethyl]-2-{1-[(3,4-dichlorophenyl)oxy]ethyl}-1-(4-fluorophenyl)-1H-imidazole], for which the EC50 under setting [1] fell in the range of 1000 to 10000 nM.
Same read-out and setting: the value for `CC(C)(c1ccc(Cl)c(Cl)c1)c1cnc(SCc2ccc(C(=O)NCC(F)(F)F)cc2F)n1-c1ccc(F)cc1` [4-[({5-[1-(3,4-dichlorophenyl)-1-methylethyl]-1-(4-fluorophenyl)-1H-imidazol-2-yl}thio)methyl]-3-fluoro-N-(2,2,2-trifluoroethyl)benzamide] was 100 to 1000 nM; that for `CC(C)(c1ccc(OCC(=O)O)cc1)c1cnc(SCc2c(F)cccc2Cl)n1-c1ccc(F)cc1` [[(4-{1-[2-{[(2-chloro-6-fluorophenyl)methyl]thio}-1-(4-fluorophenyl)-1H-imidazol-5-yl]-1-methylethyl}phenyl)oxy]acetic acid] was 1000 to 10000 nM; that for `CC(C)(c1ccc(Cl)c(Cl)c1)c1cnc(SCc2c(F)cc(C#N)cc2F)n1-c1ccc(F)cc1` [4-[({5-[1-(3,4-dichlorophenyl)-1-methylethyl]-1-(4-fluorophenyl)-1H-imidazol-2-yl}thio)methyl]-3,5-difluorobenzonitrile] was under 100 nM.
As to `COc1cc(-n2c(C(C)(C)c3ccc(Cl)c(OC)c3)cnc2SCc2ccc(S(N)(=O)=O)cc2Cl)ccc1F` [3-chloro-4-{[(5-{1-[4-chloro-3-(methyloxy)phenyl]-1-methylethyl}-1-[4-fluoro-3-(methyloxy)phenyl]-1H-imidazol-2-yl)thio]methyl}benzenesulfonamide], the EC50 under setting [1] was under 100 nM.
Regarding `CN1CCN(c2cc(CSc3ncc(C(C)(C)c4ccc(Cl)c(Cl)c4)n3-c3ccc(F)cc3)ccc2F)CC1` [1-{5-[({5-[1-(3,4-dichlorophenyl)-1-methylethyl]-1-(4-fluorophenyl)-1H-imidazol-2-yl}thio)methyl]-2-fluorophenyl}-4-methylpiperazine], the EC50 under setting [1] is 1000 to 10000 nM.
As to `CC(C)(c1ccc(C(F)(F)F)cc1)c1cnc(SCc2c(F)cccc2Cl)n1-c1ccc(F)cc1` [2-{[(2-chloro-6-fluorophenyl)methyl]thio}-1-(4-fluorophenyl)-5-{1-methyl-1-[4-(trifluoromethyl)phenyl]ethyl}-1H-imidazole], the EC50 under setting [1] lay in the range of 100 to 1000 nM.
As for `CC(C)(c1ccc(Cl)c(Cl)c1)c1cnc(SCc2ccc(F)cc2OCC(=O)O)n1-c1ccc(F)cc1` [({2-[({5-[1-(3,4-dichlorophenyl)-1-methylethyl]-1-(4-fluorophenyl)-1H-imidazol-2-yl}thio)methyl]-5-fluorophenyl}oxy)acetic acid], the EC50 under setting [1] was 100 to 1000 nM.
As for `CNS(=O)(=O)c1ccc(C(C)(C)c2cnc(SCc3ccc(F)cc3Cl)n2-c2ccc(F)cc2)cc1` [4-{1-[2-{[(2-chloro-4-fluorophenyl)methyl]thio}-1-(4-fluorophenyl)-1H-imidazol-5-yl]-1-methylethyl}-N-methylbenzenesulfonamide], under setting [1], the EC50 was in the range of 100 to 1000 nM.
In the case of `COCCNC(=O)c1ccc(CSc2ncc(C(C)(C)c3ccc(Cl)c(Cl)c3)n2-c2ccc(F)cc2)c(F)c1` [4-[({5-[1-(3,4-dichlorophenyl)-1-methylethyl]-1-(4-fluorophenyl)-1H-imidazol-2-yl}thio)methyl]-3-fluoro-N-[2-(methyloxy)ethyl]benzamide], under setting [1], the EC50 lay in the range of 100 to 1000 nM.
For `CC(C)(c1ccc(F)c(F)c1)c1cnc(SCc2c(F)cccc2Cl)n1-c1ccc(F)cc1` [2-{[(2-chloro-6-fluorophenyl)methyl]thio}-5-[1-(3,4-difluorophenyl)-1-methylethyl]-1-(4-fluorophenyl)-1H-imidazole], the concentration for a half-maximal effect (EC50) under setting [1] is under 100 nM.
Regarding `CC(C)(c1ccc(Cl)c(Cl)c1)c1cnc(SCc2c(Cl)cccc2C(=O)O)n1-c1ccc(F)cc1` [3-chloro-2-[({5-[1-(3,4-dichlorophenyl)-1-methylethyl]-1-(4-fluorophenyl)-1H-imidazol-2-yl}thio)methyl]benzoic acid], the EC50 under setting [1] was in the range of 100 to 1000 nM.
As to `CC(C)(c1ccc(Cl)c(Cl)c1)c1cnc(SCc2ccc(C(=O)O)c(F)c2)n1-c1ccc(F)cc1` [4-[({5-[1-(3,4-dichlorophenyl)-1-methylethyl]-1-(4-fluorophenyl)-1H-imidazol-2-yl}thio)methyl]-2-fluorobenzoic acid], under setting [1], the EC50 was in the range of 100 to 1000 nM.
For `CC(C)(O)c1cc(CSc2ncc(C(C)(C)c3ccc(Cl)c(Cl)c3)n2-c2ccc(F)cc2)ccc1Cl` [2-{2-chloro-5-[({5-[1-(3,4-dichlorophenyl)-1-methylethyl]-1-(4-fluorophenyl)-1H-imidazol-2-yl}thio)methyl]phenyl}propan-2-ol], under setting [1], the concentration giving a half-maximal response (EC50) fell in the range of 100 to 1000 nM.
Turning to `CC(C)(c1ccc(Cl)c(Cl)c1)c1cnc(COc2ccc(C(=O)O)cc2Cl)n1-c1ccc(F)cc1` [3-chloro-4-[({5-[1-(3,4-dichlorophenyl)-1-methylethyl]-1-(4-fluorophenyl)-1H-imidazol-2-yl}methyl)oxy]benzoic acid], under setting [1], the EC50 fell in the range of 1000 to 10000 nM.
As to `CC(C)(c1ccc2cccnc2c1)c1nnc(SCc2c(F)cc(C(=O)O)cc2F)n1-c1ccc(F)cc1` [Example 50], the EC50 (HEK 293 hTGR5/CRE-Luc cells, 6 hours incubation, luciferase activity, Table 2, read-out: h-TGR5CRE-Luc EC50 (CRE-Luc)) lay in the range of 1000 to 10000 nM.
For `CC(C)(c1ccc(Cl)c(Cl)c1)c1cnc(COc2ccc(Cl)c(S(N)(=O)=O)c2)n1-c1ccc(F)cc1` [2-chloro-5-[({5-[1-(3,4-dichlorophenyl)-1-methylethyl]-1-(4-fluorophenyl)-1H-imidazol-2-yl}methyl)oxy]benzenesulfonamide], the EC50 under setting [1] lay in the range of 100 to 1000 nM.
As to `CC(C)(c1ccc(Cl)c(Cl)c1)c1cnc(SCc2ccc(C#N)c(Cl)c2)n1-c1ccc(F)cc1` [2-chloro-4-[({5-[1-(3,4-dichlorophenyl)-1-methylethyl]-1-(4-fluorophenyl)-1H-imidazol-2-yl}thio)methyl]benzonitrile], the EC50 under setting [1] lay in the range of 100 to 1000 nM.
Regarding `CC(C)(c1ccc(Cl)c(Cl)c1)c1cnc(SCc2ccc(F)cc2Cl)n1-c1ccc(F)cc1` [2-{[(2-chloro-4-fluorophenyl)methyl]thio}-5-[1-(3,4-dichlorophenyl)-1-methylethyl]-1-(4-fluorophenyl)-1H-imidazole], the EC50 under setting [1] is 100 to 1000 nM.
Turning to `CC(C)(c1ccc(Cl)c(Cl)c1)c1cnc(C2CCN(C(=O)NN3CCCC3)CC2)n1-c1ccc(F)cc1` [4-{5-[1-(3,4-dichlorophenyl)-1-methylethyl]-1-(4-fluorophenyl)-1H-imidazol-2-yl}-N-pyrrolidin-1-ylpiperidine-1-carboxamide], the EC50 under setting [1] is 1000 to 10000 nM.
On the same count and under the same terms, the value for `CC(C)(c1ccc(Cl)c(Cl)c1)c1cnc(SCc2ccc(F)cc2S(C)(=O)=O)n1-c1ccc(F)cc1` [5-[1-(3,4-dichlorophenyl)-1-methylethyl]-2-({[4-fluoro-2-(methylsulfonyl)phenyl]methyl}thio)-1-(4-fluorophenyl)-1H-imidazole] was 100 to 1000 nM; that for `CC(C)(c1ccc(Cl)c(S(N)(=O)=O)c1)c1cnc(SCc2ccc(Cl)c(-c3nnn[nH]3)c2)n1-c1ccc(F)cc1` [2-chloro-5-{1-[2-({[4-chloro-3-(1H-tetrazol-5-yl)phenyl]methyl}thio)-1-(4-fluorophenyl)-1H-imidazol-5-yl]-1-methylethyl}benzenesulfonamide] was 100 to 1000 nM.
In the case of `COc1ccc(C(C)(C)c2c(-c3ccc(F)cc3)nc(SCc3c(F)cccc3Cl)n2C)cc1OC` [5-{1-[3,4-bis(methyloxy)phenyl]-1-methylethyl}-2-{[(2-chloro-6-fluorophenyl)methyl]thio}-4-(4-fluorophenyl)-1-methyl-1H-imidazole], the EC50 under setting [1] is 1000 to 10000 nM.
With `CC(C)(c1ccc(Cl)c(Cl)c1)c1cnc(S(=O)(=O)Cc2ccc(F)c(F)c2)n1-c1ccc(F)cc1` [5-[1-(3,4-dichlorophenyl)-1-methylethyl]-2-{[(3,4-difluorophenyl)methyl]sulfonyl}-1-(4-fluorophenyl)-1H-imidazole], the EC50 under setting [1] lay in the range of 100 to 1000 nM.
With `CC(C)(c1ccc(Cl)c(F)c1)c1cnc(SCc2c(F)cccc2Cl)n1-c1ccc(F)cc1` [5-[1-(4-chloro-3-fluorophenyl)-1-methylethyl]-2-{[(2-chloro-6-fluorophenyl)methyl]thio}-1-(4-fluorophenyl)-1H-imidazole], under setting [1], the EC50 is under 100 nM.
As to `COc1ccc(-c2cnc(SCc3ccc(F)cc3Cl)n2-c2ccc(F)cc2)cc1OC` [5-[3,4-bis(methyloxy)phenyl]-2-{[(2-chloro-4-fluorophenyl)methyl]thio}-1-(4-fluorophenyl)-1H-imidazole], the EC50 under setting [1] was in the range of 1000 to 10000 nM.
In the case of `CC(C)(c1ccc(Cl)c(Cl)c1)c1cnc(C2=CCN(S(C)(=O)=O)CC2)n1-c1ccc(F)cc1` [4-{5-[1-(3,4-dichlorophenyl)-1-methylethyl]-1-(4-fluorophenyl)-1H-imidazol-2-yl}-1-(methylsulfonyl)-1,2,3,6-tetrahydropyridine], the EC50 under setting [1] is 1000 to 10000 nM.

Values taken from patent publication US8785488B2 (Exelixis Patent Company LLC, priority 2009, dated 2014).
